Values of other authors in patent US6548469B2, “Cleaning compositions” (Merck Patent GmbH, priority 1996, dated 2003).

Conditions: use in cosmetics formulations on humans

CCCCN(CCC(=O)OCC)C(C)=O [ethyl 3-(N-butylacetamino)propionate]
skin and mucosa tolerance: outstanding | toxic, allergizing or sensitizing properties: without toxic, allergizing or sensitizing properties
